Experiments:
Format in all cases: in vivo
[1] = system: barnyardgrass (Echinochloa crus-galli); test: Test A pre-/postemergence plant response
Procedure, shortened: (§1)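 Soil: loam blended with sand. Formulation: non-phytotoxic solvent mixture plus surfactant, applied as preemergence directed soil spray and as postemergence spray. Scoring: visual, 0 no effect to 100 complete control, roughly 10 days post-treatment in greenhouse.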

[2] = system: pigweed (Amaranthus retroflexus); test: Test A pre-/postemergence plant response
Procedure, shortened: as §1

[3] = system: wheat (Triticum aestivum); test: Test A pre-/postemergence plant response
Procedure, shortened: as §1

[4] = system: large crabgrass (Digitaria sanguinalis); test: Test A pre-/postemergence plant response
Procedure, shortened: as §1

[5] = system: giant foxtail (Setaria faberi); test: Test A pre-/postemergence plant response
Procedure, shortened: as §1

[6] = system: barnyardgrass (Echinochloa crus-galli); test: Test B flooded paddy test plant response
Procedure, shortened: (§2)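 Compounds were added directly to paddy water over 2-leaf-stage plants in pots flooded 3 cm above soil, water depth maintained. Visual injury scored against controls after 13 to 15 days in greenhouse, 0 (none) to 100 (complete control); dash indicates no result.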

[7] = system: umbrella sedge (Cyperus difformis); test: Test B flooded paddy test plant response
Procedure, shortened: as §2

[8] = system: ducksalad (Heteranthera limosa); test: Test B flooded paddy test plant response
Procedure, shortened: as §2

[9] = system: chickweed (Stellaria media); test: Test B postemergence plant response; details: for Chickweed plant response rating: postemergence, 0-100 scale; for Plant response rating, Chickweed: Postemergence
Procedure, shortened: (§3)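 Emerged plants, 1- to 4-leaf stage, treated; greenhouse 13–15 d; eye-scored vs untreated controls (0–100 scale).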

[10] = system: windgrass (Apera spica-venti); test: Test B postemergence plant response; details: for Windgrass plant response rating: postemergence, 0-100 scale; for Plant response rating, Windgrass: Postemergence
Procedure, shortened: as §3

[11] = system: winter barley (Hordeum vulgare); test: Test B postemergence plant response; details: for Barley plant response rating: postemergence; for Plant response rating, Barley: Postemergence, scale 0 to 100, 0 no effect, 100 complete control
Procedure, shortened: as §3

[12] = system: canarygrass (Phalaris minor); test: Test B postemergence plant response; details: for Canarygrass plant response rating: 8 g ai/ha, postemergence, 0-100 scale; for Plant response rating, Canarygrass: Postemergence
Procedure, shortened: as §3

[13] = Postemergence, 31 g ai/ha, 0 to 100 scale, 0 no effect, 100 complete control
[14] = Postemergence, 125 g ai/ha, 0 to 100 scale, 0 no effect, 100 complete control
[15] = Preemergence, 31 g ai/ha, 0 to 100 scale, 0 is no effect, 100 is complete control
[16] = Preemergence, 125 g ai/ha, 0 to 100 scale (0 no effect, 100 complete control)
[17] = Flood (flooded paddy test), 62 g ai/ha, scale 0 to 100, 0 no effect, 100 complete control
[18] = Flood (flooded paddy test), 250 g ai/ha, scale 0 to 100, 0 no effect, 100 complete control
[19] = 62 g ai/ha, scale 0 to 100, 0 no effect, 100 complete control
[20] = Flood (flooded paddy test), 125 g ai/ha, scale 0 to 100, 0 no effect, 100 complete control
[21] = Flood, 31 g ai/ha, scale 0 to 100
[22] = Flood, 62 g ai/ha, scale 0 to 100

CCCc1cc(-c2ccc(Cl)cc2)nn1-c1c(O)cnn(C)c1=O [Compound 76]
50: Plant response rating, Wheat [3, 14]
90: Plant response rating, Barnyardgrass [1, 13] | Plant response rating, Foxtail, Giant [5, 14] | Plant response rating, Windgrass [10, 19] | Plant response rating, Canarygrass ([12]; 31 g ai/ha, scale 0 to 100)
40: Plant response rating, Barnyardgrass [1, 15]
70: Plant response rating, Foxtail, Giant [5, 13] | Plant response rating, Foxtail, Giant [5, 15]
30: Windgrass plant response rating ([10]; 8 g ai/ha)
98: Plant response rating, Canarygrass [12, 19]
80: Plant response rating, Crabgrass, Large [4, 16] | Windgrass plant response rating ([10]; 16 g ai/ha) | Plant response rating, Windgrass ([10]; 31 g ai/ha, scale 0 to 100)
20: Plant response rating, Wheat [3, 13] | Plant response rating, Crabgrass, Large [4, 13] | Plant response rating, Crabgrass, Large [4, 15]
0: Plant response rating, Pigweed [2, 13] | Plant response rating, Pigweed [2, 14] | Plant response rating, Pigweed [2, 15] | Plant response rating, Pigweed [2, 16] | Plant response rating, Wheat [3, 15] | Plant response rating, Wheat [3, 16] | Plant response rating, Barnyardgrass [6, 17] | Plant response rating, Barnyardgrass [6, 18] | Plant response rating, Sedge, Umbrella [7, 17] | Plant response rating, Sedge, Umbrella [7, 18] | Plant response rating, Ducksalad [8, 17] | Plant response rating, Ducksalad [8, 18] | Chickweed plant response rating ([9]; 8 g ai/ha) | Plant response rating, Chickweed ([9]; 16 g ai/ha, scale 0 to 100) | Plant response rating, Chickweed ([9]; 31 g ai/ha, scale 0 to 100) | Plant response rating, Chickweed [9, 19] | Barley plant response rating ([11]; 8 g ai/ha, 0-100 scale) | Plant response rating, Barley ([11]; 16 g ai/ha)
45: Canarygrass plant response rating [12]
25: Plant response rating, Barley ([11]; 62 g ai/ha)
100: Plant response rating, Barnyardgrass [1, 14] | Plant response rating, Barnyardgrass [1, 16] | Plant response rating, Crabgrass, Large [4, 14] | Plant response rating, Foxtail, Giant [5, 16]
5: Plant response rating, Barley ([11]; 31 g ai/ha)
60: Plant response rating, Canarygrass ([12]; 16 g ai/ha, scale 0 to 100)

CCc1c(C)c(-c2ccc(Br)cc2)nn1-c1c(O)cnn(C)c1=O [Compound 83]
20: Plant response rating, Barnyardgrass [1, 15]
100: Plant response rating, Barnyardgrass [1, 13] | Plant response rating, Barnyardgrass [1, 14] | Plant response rating, Barnyardgrass [1, 16] | Plant response rating, Crabgrass, Large [4, 14] | Plant response rating, Foxtail, Giant [5, 14] | Plant response rating, Foxtail, Giant [5, 16] | Plant response rating, Windgrass ([10]; 31 g ai/ha, scale 0 to 100) | Plant response rating, Windgrass [10, 19]
98: Windgrass plant response rating ([10]; 16 g ai/ha)
30: Plant response rating, Pigweed [2, 16] | Plant response rating, Wheat [3, 16]
60: Plant response rating, Wheat [3, 14] | Plant response rating, Crabgrass, Large [4, 13]
65: Canarygrass plant response rating [12]
0: Plant response rating, Pigweed [2, 13] | Plant response rating, Pigweed [2, 14] | Plant response rating, Pigweed [2, 15] | Plant response rating, Wheat [3, 13] | Plant response rating, Wheat [3, 15] | Plant response rating, Crabgrass, Large [4, 15] | Plant response rating, Foxtail, Giant [5, 15] | Plant response rating, Barnyardgrass [6, 20] | Plant response rating, Barnyardgrass [6, 18] | Plant response rating, Barnyardgrass [6, 21] | Plant response rating, Barnyardgrass [6, 22] | Plant response rating, Sedge, Umbrella [7, 20] | Plant response rating, Sedge, Umbrella [7, 18] | Plant response rating, Sedge, Umbrella [7, 21] | Plant response rating, Sedge, Umbrella [7, 22] | Plant response rating, Ducksalad [8, 20] | Plant response rating, Ducksalad [8, 21] | Plant response rating, Ducksalad [8, 22] | Chickweed plant response rating ([9]; 8 g ai/ha) | Chickweed plant response rating ([9]; 16 g ai/ha) | Plant response rating, Chickweed ([9]; 31 g ai/ha, scale 0 to 100) | Plant response rating, Chickweed [9, 19] | Barley plant response rating ([11]; 8 g ai/ha, 0-100 scale) | Barley plant response rating ([11]; 16 g ai/ha, 0-100 scale (0 no effect, 100 complete control))
45: Plant response rating, Barley ([11]; 31 g ai/ha) | Plant response rating, Barley ([11]; 62 g ai/ha)
90: Plant response rating, Foxtail, Giant [5, 13] | Windgrass plant response rating ([10]; 8 g ai/ha) | Plant response rating, Canarygrass ([12]; 31 g ai/ha, scale 0 to 100) | Plant response rating, Canarygrass [12, 19]
70: Plant response rating, Crabgrass, Large [4, 16]
